The values that follow come from ChEMBL document CHEMBL1201862, “PubChem BioAssay data set” (2004).

Among the test systems are UO-31; SW-620; CAKI-1; HCT-116; UACC-62; NCI/ADR-RES; HOP-62; A498; SF-295; DLD-1; OVCAR-4; SNB-75; HOP-92; SF-268; SK-MEL-2; HL-60; RPMI-8226; NCI-H522.
Assay in all cases: NCI-60 cell line screen, 48 h

The structures appear in SMILES notation.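 Values below derive from 48-hour exposures of cells grown in 96-well plates, with endpoints linearly interpolated between the two concentrations bracketing the appropriate inhibition level. Abbreviation: GI50, concentration required for 50% inhibition of growth.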 The source made the active and inactive calls. Rule as the data show it: active = GI50 up to about 1.1 µM and inactive = higher.

Consider `CC(=O)OC1C(O)C(C)OC(OC(=O)C2CCC3C(C2)OC2(CC(OC(=O)/C=C/c4ccccc4)C(C)CO2)C32CO2)C1OC1OC(C)C(O)C(O)C1O` (stereo not drawn), for which the GI50 was 7780 nM (inactive) in the assay with UO-31; 50.4 nM (active) in the assay with SW-620; 2080 nM (inactive) in the assay on CAKI-1; 38 nM (active) in the assay with HCT-116; 39 nM (active) in the assay on UACC-62; 21700 nM (inactive) in the assay on NCI/ADR-RES. The GI50 in the assay with HOP-62 was 79.4 nM (active); with A498 it was 70.2 nM (active); in the assay with SF-295 it was 77.6 nM (active); with DLD-1, 335 nM (active); in the assay with OVCAR-4, 32.5 nM (active); in the assay with SNB-75, 46.8 nM (active). Further, the GI50 was 32.5 nM (active) in the assay with HOP-92; 36.2 nM (active) in the assay on SF-268; 32.5 nM (active) in the assay on SK-MEL-2; 33.6 nM (active) in the assay on HL-60; 36.1 nM (active) with RPMI-8226; 32.5 nM (active) in the assay on NCI-H522.
